Assays:
Type in all cases: in vivo
wheat = experiment: Test Example 4: phytotoxicity to upland crop plants, treatment after emergence; conditions: dosage 5 kg/ha, sprayed after emergence, judged 14 days after treatment
Summary of the method: (§1)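 Scores of weed-killing rate, with crop phytotoxicity, come from inspection 14 days after plants in soil vats, grown to specified leaf stages, are sprayed with a formulation holding the compound at a prescribed concentration.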

soybean plant = experiment: as above; conditions: dosage 5 kg/ha, sprayed after emergence, judged 14 days after treatment
Summary of the method: as §1

[1] = test system: barnyard grass (Echinochloa crus-galli Beauv.); experiment: Test Example 1: herbicidal effect on paddy field weeds before emergence; conditions: Dosage 5 kg/ha
Summary of the method: (§2)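 Seeds of both weeds, still ungerminated, in soil pots held under paddy conditions received a set dose of test solution as soil treatment. After twenty-one days, control relative to untreated pots was calculated and rated on a scoring scale.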

[2] = test system: bulrush (Scirpus juncoides Roxb.); experiment: as above; conditions: Dosage 5 kg/ha
Summary of the method: as §2

[3] = test system: barnyard grass (Echinochloa crus-galli Beauv.), Ec; experiment: Test Example 4: herbicidal effect on upland weeds after emergence; conditions: dosage 5 kg/ha; sprayed after emergence; judged 14 days after treatment
Summary of the method: (§3)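 Seeds sown in soil and covered. Plants raised to specified leaf stages. Agent with test compound at a prescribed concentration sprayed. Herbicidal effect and crop damage scored after 14 days as weed-killing rate.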

[4] = test system: cleavers (Galium aparine L.), Ga; experiment: as above; conditions: dosage 5 kg/ha; sprayed after emergence; judged 14 days after treatment
Summary of the method: as §3

[5] = test system: cocklebur (Xanthium strumarium L.), Xs; experiment: as above; conditions: dosage 5 kg/ha; sprayed after emergence; judged 14 days after treatment
Summary of the method: as §3

[6] = test system: velvetleaf (Abutilon theophtasti L.), At; experiment: as above; conditions: dosage 5 kg/ha; sprayed after emergence; judged 14 days after treatment
Summary of the method: as §3

[7] = test system: forxtail grass (Alopecurus aequalis var. amurensis Ohwi), Am; experiment: as above; conditions: dosage 5 kg/ha; sprayed after emergence; judged 14 days after treatment
Summary of the method: as §3

[8] = test system: bird's eye speedwell (Veronica persica Poir.), Vp; experiment: as above; conditions: dosage 5 kg/ha; sprayed after emergence; judged 14 days after treatment
Summary of the method: as §3

soybean plant (So) = experiment: Test Example 3: phytotoxicity to upland crop plants, treatment before emergence; conditions: dosage 5 kg/ha
Summary of the method: (§4)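 Phytotoxicity scores for soybean and wheat were assigned by a set criterion 14 days after a pre-emergence spray of a liquid preparation containing the test compound at a prescribed concentration.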

wheat (Wh) = experiment: as above; conditions: dosage 5 kg/ha
Summary of the method: as §4

[9] = test system: barnyard grass (Echinochloa crus-galli Beauv.); experiment: Test Example 2: herbicidal effect on paddy field weeds after emergence; conditions: Dosage 5 kg/ha; one-leaved stage; 21 days after treatment
Summary of the method: (§5)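 Weeds in flooded paddy-soil pots were grown to the one-leaved stage, then the soil was treated with the compound solution at a set dosage.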

[10] = test system: bulrush (Scirpus juncoides Roxb.); experiment: as above; conditions: Dosage 5 kg/ha; one-leaved stage; 21 days after treatment
Summary of the method: as §5

[11] = test system: monochoria (Monochoria vaginalis Presl); experiment: as above; conditions: Dosage 5 kg/ha; one-leaved stage; 21 days after treatment
Summary of the method: as §5

[12] = test system: barnyard grass (Echinochloa crus-galli Beauv.), Ec; experiment: Test Example 3: herbicidal effect on upland weeds before emergence; conditions: dosage 5 kg/ha
Summary of the method: (§6)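 Steps: sow upland weed seeds; spray liquid formulation of active ingredient at prescribed concentration prior to emergence; after 14 days, calculate weed-killing rate; judge herbicidal effect.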

[13] = test system: cleavers (Galium aparine L.), Ga; experiment: as above; conditions: dosage 5 kg/ha
Summary of the method: as §6

[14] = test system: cocklebur (Xanthium strumarium L.), Xs; experiment: as above; conditions: dosage 5 kg/ha
Summary of the method: as §6

[15] = test system: velvetleaf (Abutilon theophtasti L.), At; experiment: as above; conditions: dosage 5 kg/ha
Summary of the method: as §6

[16] = test system: forxtail grass (Alopecurus aequalis var. amurensis Ohwi), Am; experiment: as above; conditions: foxtail grass, dosage 5 kg/ha
Summary of the method: as §6

[17] = test system: bird's eye speedwell (Veronica persica Poir.), Vp; experiment: as above; conditions: dosage 5 kg/ha
Summary of the method: as §6

Structure (SMILES)	Phytotoxicity Wh (wheat)	Phytotoxicity So (soybean plant)	Pre-emergence treatment Barnyard grass (herbicidal effect) [1]	Pre-emergence treatment Bulrush (herbicidal effect) [2]	Herbicidal effect Ec [3]	Herbicidal effect Ga [4]	Herbicidal effect Xs [5]	Herbicidal effect At [6]	Herbicidal effect Am [7]	Herbicidal effect Vp [8]	Phytotoxicity So (soybean plant (So))	Phytotoxicity Wh (wheat (Wh))	Post-emergence treatment Barnyard grass (herbicidal effect) [9]	Post-emergence treatment Bulrush (herbicidal effect) [10]	Post-emergence treatment Monochoria (herbicidal effect) [11]	Herbicidal effect Ec [12]	Herbicidal effect Ga [13]	Herbicidal effect Xs [14]	Herbicidal effect At [15]	Herbicidal effect Am [16]	further results
CCCNC(=O)c1nc2c(cc1C(=O)Nc1cccc(Cl)c1C)CCOC2 [compound 450]	4 (Crop-killing rate is 90-99%.)	4 (Crop-killing rate is 90-99%.)	5 (Weed-killing rate is 100%.)	5 (Weed-killing rate is 100%.)	5 (Weed-killing rate is 100%.)	4 (Weed-killing rate is 90-99%.)	4 (Weed-killing rate is 90-99%.)	5 (Weed-killing rate is 100%.)	5 (Weed-killing rate is 100%.)	5 (Weed-killing rate is 100%.)	4 (Crop-killing rate is 90-99%.)	4 (Crop-killing rate is 90-99%.)	5 (Weed-killing rate is 100%.)	5 (Weed-killing rate is 100%.)	5 (Weed-killing rate is 100%.)	5 (Weed-killing rate is 100%.)	4 (Weed-killing rate is 90-99%.)	4 (Weed-killing rate is 90-99%.)	5 (Weed-killing rate is 100%.)	5 (Weed-killing rate is 100%.)	Herbicidal effect Vp [17]: 5 (Weed-killing rate is 100%.)
CCCNC(=O)c1nc2c(cc1C(=O)Nc1cccc(Cl)c1C)COCC2 [compound 474]	3 (Crop-killing rate is 70-89%.)	3 (Crop-killing rate is 70-89%.)	5 (Weed-killing rate is 100%.)	5 (Weed-killing rate is 100%.)	5 (Weed-killing rate is 100%.)	4 (Weed-killing rate is 90-99%.)	4 (Weed-killing rate is 90-99%.)	5 (Weed-killing rate is 100%.)	5 (Weed-killing rate is 100%.)	5 (Weed-killing rate is 100%.)	3 (Crop-killing rate is 70-89%.)	4 (Crop-killing rate is 90-99%.)	5 (Weed-killing rate is 100%.)	5 (Weed-killing rate is 100%.)	5 (Weed-killing rate is 100%.)	5 (Weed-killing rate is 100%.)	4 (Weed-killing rate is 90-99%.)	4 (Weed-killing rate is 90-99%.)	5 (Weed-killing rate is 100%.)	5 (Weed-killing rate is 100%.)	Herbicidal effect Vp [17]: 5 (Weed-killing rate is 100%.)
CCCNC(=O)c1nc2occc2cc1C(=O)Nc1c(CC)ccc(Cl)c1CC [compound 775]	5 (Crop-killing rate is 100%.)	5 (Crop-killing rate is 100%.)	5 (Weed-killing rate is 100%.)	5 (Weed-killing rate is 100%.)	5 (Weed-killing rate is 100%.)	5 (Weed-killing rate is 100%.)	5 (Weed-killing rate is 100%.)	5 (Weed-killing rate is 100%.)	5 (Weed-killing rate is 100%.)	5 (Weed-killing rate is 100%.)	5 (Crop-killing rate is 100%.)	5 (Crop-killing rate is 100%.)	5 (Weed-killing rate is 100%.)	5 (Weed-killing rate is 100%.)	5 (Weed-killing rate is 100%.)	5 (Weed-killing rate is 100%.)	5 (Weed-killing rate is 100%.)	5 (Weed-killing rate is 100%.)	5 (Weed-killing rate is 100%.)	5 (Weed-killing rate is 100%.)	Herbicidal effect Vp [17]: 5 (Weed-killing rate is 100%.)
CCCNC(=O)c1nc2c(C)nn(C)c2cc1C(=O)Nc1c(CC)ccc(Cl)c1CC [compound 1197]	5 (Crop-killing rate is 100%.)	5 (Crop-killing rate is 100%.)	5 (Weed-killing rate is 100%.)	5 (Weed-killing rate is 100%.)	5 (Weed-killing rate is 100%.)	5 (Weed-killing rate is 100%.)	5 (Weed-killing rate is 100%.)	5 (Weed-killing rate is 100%.)	5 (Weed-killing rate is 100%.)	5 (Weed-killing rate is 100%.)	5 (Crop-killing rate is 100%.)	5 (Crop-killing rate is 100%.)	5 (Weed-killing rate is 100%.)	5 (Weed-killing rate is 100%.)	5 (Weed-killing rate is 100%.)	5 (Weed-killing rate is 100%.)	5 (Weed-killing rate is 100%.)	5 (Weed-killing rate is 100%.)	5 (Weed-killing rate is 100%.)	5 (Weed-killing rate is 100%.)	Herbicidal effect Vp [17]: 5 (Weed-killing rate is 100%.)
